This is an account of results in PubChem BioAssay AID1259407 (Chemical Carcinogenesis Research Information System (CCRIS), 2018).

Activity calls are given as the source filed them. The rule behind the calls is not given here.

For the data set, the system named is CCRIS mutagenicity, Ames/micronucleus/aberration tests. Description: CCRIS mutagenicity studies.
[1] abbreviates: Test System: AMES SALMONELLA TYPHIMURIUM, Strain/Indicator: TA100, Metabolic Activation: NONE, Method: PREINCUBATION
Where [2] appears, read: Test System: AMES SALMONELLA TYPHIMURIUM, Strain/Indicator: TA1535, Metabolic Activation: NONE, Method: PREINCUBATION
Setting [3] is: Test System: AMES SALMONELLA TYPHIMURIUM, Strain/Indicator: TA100, Metabolic Activation: RAT, LIVER, S-9, AROCLOR, Method: PREINCUBATION

Turning to `O=C(Cl)c1ccccc1[N+](=O)[O-]`, the mutagenic call (Test System: AMES SALMONELLA TYPHIMURIUM, Strain/Indicator: TA97, Metabolic Activation: HAMSTER, LIVER, S-9, AROCLOR 1254 (10%), Method: PREINCUBATION) is “active; positive”; the mutagenic call (Test System: AMES SALMONELLA TYPHIMURIUM, Strain/Indicator: TA97, Metabolic Activation: NONE, Method: PREINCUBATION) was “active; positive”; the mutagenic call (Test System: AMES SALMONELLA TYPHIMURIUM, Strain/Indicator: TA97, Metabolic Activation: RAT, LIVER, S-9, AROCLOR 1254 (10%), Method: PREINCUBATION) was “active; positive”; the mutagenic call (Test System: AMES SALMONELLA TYPHIMURIUM, Strain/Indicator: TA98, Metabolic Activation: HAMSTER, LIVER, S-9, AROCLOR 1254 (10%), Method: PREINCUBATION) was “active; positive”; the mutagenic call (Test System: AMES SALMONELLA TYPHIMURIUM, Strain/Indicator: TA98, Metabolic Activation: RAT, LIVER, S-9, AROCLOR 1254 (10%), Method: PREINCUBATION) is “active; positive”; the mutagenic call (Test System: AMES SALMONELLA TYPHIMURIUM, Strain/Indicator: TA98, Metabolic Activation: RAT, LIVER, S-9, KANECHLOR 500, Method: PREINCUBATION) was “active; positive”. Besides, the mutagenic call (Test System: AMES SALMONELLA TYPHIMURIUM, Strain/Indicator: TA100, Metabolic Activation: HAMSTER, LIVER, S-9, AROCLOR 1254 (10%), Method: PREINCUBATION) is “active; positive”; the mutagenic call under setting [1] is “active; positive”; the mutagenic call (Test System: AMES SALMONELLA TYPHIMURIUM, Strain/Indicator: TA100, Metabolic Activation: RAT, LIVER, S-9, AROCLOR 1254 (10%), Method: PREINCUBATION) is “active; positive”; the mutagenic call (Test System: AMES SALMONELLA TYPHIMURIUM, Strain/Indicator: TA100, Metabolic Activation: RAT, LIVER, S-9, KANECHLOR 500, Method: PREINCUBATION) is “active; positive”; the mutagenic call (Test System: AMES SALMONELLA TYPHIMURIUM, Strain/Indicator: TA1535, Metabolic Activation: HAMSTER, LIVER, S-9, AROCLOR 1254 (10%), Method: PREINCUBATION) is “inactive; negative”; the mutagenic call under setting [2] was “inactive; negative”. In addition, the mutagenic call (Test System: AMES SALMONELLA TYPHIMURIUM, Strain/Indicator: TA1535, Metabolic Activation: RAT, LIVER, S-9, AROCLOR 1254 (10%), Method: PREINCUBATION) is “inactive; negative”.

As for `CCCCN(CCCC(=O)O)N=O`, the mutagenic call (End Point: IN VITRO MICRONUCLEUS, Test System: CHL/IU CELLS, Metabolic Activation: NONE) is “active; positive”; the mutagenic call (Test System: AMES SALMONELLA TYPHIMURIUM, Strain/Indicator: TA100, Metabolic Activation: BOVINE, URINARY BLADDER, S-9, Method: PREINCUBATION) was “inactive; negative”; the mutagenic call (Test System: AMES SALMONELLA TYPHIMURIUM, Strain/Indicator: TA100, Metabolic Activation: PIG, URINARY BLADDER, S-9, Method: PREINCUBATION) was “inactive; negative”; the mutagenic call (Test System: AMES SALMONELLA TYPHIMURIUM, Strain/Indicator: TA100, Metabolic Activation: RAT, LIVER, MICROSOMES, SODIUM PHENOBARBITONE, Method: PREINCUBATION) was “inactive; negative”; the mutagenic call under setting [3] is “inactive; negative”; the mutagenic call under setting [2] was “inactive; negative”. For the same compound, the mutagenic call runs as follows: (Test System: AMES SALMONELLA TYPHIMURIUM, Strain/Indicator: TA1535, Metabolic Activation: RAT, LIVER, MICROSOMES, SODIUM PHENOBARBITONE, Method: PREINCUBATION) “inactive; negative”; (Test System: AMES SALMONELLA TYPHIMURIUM, Strain/Indicator: TA1535, Metabolic Activation: RAT, LIVER, S-9, AROCLOR, Method: PREINCUBATION) “inactive; negative”; (Test System: AMES SALMONELLA TYPHIMURIUM, Strain/Indicator: TA1535, Metabolic Activation: RAT, LIVER, S-9, KC500 OR PHENOBARBITAL, Method: LIQUID SUSPENSION) “active; positive”.

`COC(=O)c1oc(N(OC(C)=O)C(C)=O)c(-c2ccccc2)c1-c1ccccc1`: the mutagenic call is “inactive; negative” (Test System: AMES SALMONELLA TYPHIMURIUM, Strain/Indicator: TA98, Metabolic Activation: NONE, Method: PREINCUBATION); “inactive; negative” (Test System: AMES SALMONELLA TYPHIMURIUM, Strain/Indicator: TA98, Metabolic Activation: RAT, LIVER, S-9, AROCLOR, Method: PREINCUBATION); “inactive; negative” under setting [1]; “inactive; negative” under setting [3].

With `Nc1ccc2ccc3cccc4ccc1c2c34`, the mutagenic call (End Point: IN VITRO CHROMOSOMAL ABERRATIONS, Test System: CHINESE HAMSTER LUNG (CHL) CELLS, Metabolic Activation: NONE) is “inactive; negative”; the mutagenic call (Test System: AMES SALMONELLA TYPHIMURIUM, Strain/Indicator: TA98(1,8-DNP6), Metabolic Activation: NONE, Method: STANDARD PLATE) is “active; positive”; the mutagenic call (Test System: AMES SALMONELLA TYPHIMURIUM, Strain/Indicator: TA98(1,8-DNP6), Metabolic Activation: RAT, LIVER, S-9, AROCLOR 1254, Method: STANDARD PLATE) is “active; positive”; the mutagenic call (Test System: AMES SALMONELLA TYPHIMURIUM, Strain/Indicator: TA98(NR), Metabolic Activation: NONE, Method: STANDARD PLATE) is “active; positive”; the mutagenic call (Test System: AMES SALMONELLA TYPHIMURIUM, Strain/Indicator: TA98(NR), Metabolic Activation: RAT, LIVER, S-9, AROCLOR 1254, Method: STANDARD PLATE) is “active; positive”; the mutagenic call (Test System: AMES SALMONELLA TYPHIMURIUM, Strain/Indicator: TA98, Metabolic Activation: NONE, Method: STANDARD PLATE) was “active; positive”. Besides, the mutagenic call reads like this: (Test System: AMES SALMONELLA TYPHIMURIUM, Strain/Indicator: TA98, Metabolic Activation: RAT, LIVER, S-9, AROCLOR 1254 (2 OR 4%), Method: STANDARD PLATE) “active; positive”; (Test System: AMES SALMONELLA TYPHIMURIUM, Strain/Indicator: TA100, Metabolic Activation: NONE, Method: STANDARD PLATE) “inactive; negative”; (Test System: AMES SALMONELLA TYPHIMURIUM, Strain/Indicator: TA100, Metabolic Activation: RAT, LIVER, S-9, AROCLOR 1254 (4%), Method: STANDARD PLATE) “inactive; negative”; (Test System: AMES SALMONELLA TYPHIMURIUM, Strain/Indicator: TA100, Metabolic Activation: RAT, LIVER, S-9, AROCLOR 1254, Method: STANDARD PLATE) “active; positive”; (Test System: AMES SALMONELLA TYPHIMURIUM, Strain/Indicator: TA1535, Metabolic Activation: RAT, LIVER, S-9, AROCLOR 1254 (4%), Method: STANDARD PLATE) “inactive; negative”; (Test System: AMES SALMONELLA TYPHIMURIUM, Strain/Indicator: TA1537, Metabolic Activation: RAT, LIVER, S-9, AROCLOR 1254 (4%), Method: STANDARD PLATE) “inactive; negative”. Further, the mutagenic call runs as follows: (Test System: AMES SALMONELLA TYPHIMURIUM, Strain/Indicator: TA1537, Metabolic Activation: RAT, LIVER, S-9, AROCLOR 1254, Method: STANDARD PLATE) “active; positive”; (Test System: AMES SALMONELLA TYPHIMURIUM, Strain/Indicator: TA1538, Metabolic Activation: NONE, Method: STANDARD PLATE) “inactive; negative”; (Test System: AMES SALMONELLA TYPHIMURIUM, Strain/Indicator: TA1538, Metabolic Activation: RAT, LIVER, S-9, AROCLOR 1254, Method: STANDARD PLATE) “active; positive”.

For the compound `[C-]#[O+].[C-]#[O+].[Ni].c1ccc([PH+](c2ccccc2)c2ccccc2)cc1.c1ccc([PH+](c2ccccc2)c2ccccc2)cc1`, the mutagenic call is, setting by setting: (Test System: Ames Salmonella typhimurium, Strain/Indicator: TA100, Metabolic Activation: None, Method: Preincubation) “inactive; negative”; (Test System: Ames Salmonella typhimurium, Strain/Indicator: TA100, Metabolic Activation: Rat, Liver, S-9, Phenobarbital and 5,6-benzoflavone, Method: Preincubation) “inactive; negative”; (Test System: Ames Salmonella typhimurium, Strain/Indicator: TA102, Metabolic Activation: None, Method: Preincubation) “inactive; negative”; (Test System: Ames Salmonella typhimurium, Strain/Indicator: TA102, Metabolic Activation: Rat, Liver, S-9, Phenobarbital and 5,6-benzoflavone, Method: Preincubation) “inactive; negative”.
